This note sets out measurements from patent US10125100B2, “Kinase inhibitors” (Respivert Limited, priority 2014, dated 2018).

The structures appear in SMILES notation.

For data set [1], the target named is c-Src (Homo sapiens (Human), UniProt P12931). The data set is described as follows: c-Src enzyme inhibition, Z-LYTE FRET. The data set is classed as biochemical. The procedure: (§1) The enzyme inhibitory activities of compounds disclosed herein are determined by FRET using synthetic peptides labelled with both donor and acceptor fluorophores (Z-LYTE, Invitrogen Ltd., Paisley, UK).
Chain of c-Src (P12931 whole entry, looked up): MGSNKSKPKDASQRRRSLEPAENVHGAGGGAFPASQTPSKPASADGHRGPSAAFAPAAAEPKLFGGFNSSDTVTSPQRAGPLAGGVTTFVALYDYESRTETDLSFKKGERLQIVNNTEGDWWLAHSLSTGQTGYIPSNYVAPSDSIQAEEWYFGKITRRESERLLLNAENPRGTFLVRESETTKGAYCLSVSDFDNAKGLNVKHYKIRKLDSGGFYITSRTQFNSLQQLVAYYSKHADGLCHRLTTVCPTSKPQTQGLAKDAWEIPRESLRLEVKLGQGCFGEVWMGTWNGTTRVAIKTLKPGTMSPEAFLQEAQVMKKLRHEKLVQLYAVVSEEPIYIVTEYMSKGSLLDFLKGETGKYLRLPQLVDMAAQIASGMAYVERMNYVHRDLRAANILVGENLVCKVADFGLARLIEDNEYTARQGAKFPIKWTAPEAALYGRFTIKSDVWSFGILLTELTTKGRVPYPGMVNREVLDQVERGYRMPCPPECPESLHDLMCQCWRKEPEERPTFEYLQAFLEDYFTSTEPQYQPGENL
The inhibitory activities of compounds of the invention against c-Src and Syk enzymes (Invitrogen), are evaluated in a similar fashion to that described hereinabove. The relevant enzyme (3000 ng/mL or 2000 ng/mL respectively, 2.5 μL) is incubated with the test compound (either 1 μg/mL, 0.1 μg/mL, 0.01 μg/mL, or 0.001 μg/mL, 2.5 μL each) for 2 hr at RT. The FRET peptides (8 μM, 2.5 μL), and appropriate ATP solutions (2.5 μL, 800 μM for c-Src, and 60 μM ATP for Syk) are then added to the enzymes/compound mixtures and the mixture incubated for 1 hr. Development reagent (protease, 5 μL) is added for 1 hr prior to detection in a fluorescence microplate reader (Varioskan® Flash, ThermoFisher Scientific).
(§2) In all cases, the site-specific protease cleaves non-phosphorylated peptide only and eliminates the FRET signal. Phosphorylation levels of each reaction are calculated using the ratio of coumarin emission (donor) over fluorescein emission (acceptor), for which high ratios indicate high phosphorylation and low ratios indicate low phosphorylation levels.

Data set [2] concerns the target Syk (Homo sapiens (Human), UniProt P43405). The data set is described as follows: Syk enzyme inhibition, Z-LYTE FRET. The data set is classed as biochemical. The protocol: as §1
The relevant enzyme (3000 ng/mL or 2000 ng/mL respectively, 2.5 μL) is incubated with the test compound (either 1 μg/mL, 0.1 μg/mL, 0.01 μg/mL, or 0.001 μg/mL, 2.5 μL each) for 2 hr at RT. The FRET peptides (8 μM, 2.5 μL), and appropriate ATP solutions (2.5 μL, 800 μM for c-Src, and 60 μM ATP for Syk) are then added to the enzymes/compound mixtures and the mixture incubated for 1 hr. Development reagent (protease, 5 μL) is added for 1 hr prior to detection in a fluorescence microplate reader (Varioskan® Flash, ThermoFisher Scientific).
as §2

Data set [3] has as its target p38 MAPKα (MAPK14) (Homo sapiens (Human), UniProt Q16539). Briefly: p38 MAPKα enzyme inhibition (Method 2), Z-LYTE FRET. Format: biochemical. The protocol: as §1
The following two assay variants can be used for determination of p38 MAPKα inhibition.
The inhibitory activities of test compounds against the p38 MAPKα isoform (MAPK14: Invitrogen) are evaluated indirectly by determining the level of activation/phosphorylation of the down-stream molecule, MAPKAP-K2. The p38 MAPKα protein (80 ng/mL, 2.5 μL) is mixed with the test compound (2.5 μL of either 4 μg/mL, 0.4 μg/mL, 0.04 μg/mL or 0.004 μg/mL) for 2 hr at RT. […] The mixture is incubated for 1 hr at RT. Development reagent (protease, 5 μL) is added for 1 hr prior to detection in a fluorescence microplate reader (Varioskan® Flash, ThermoFisher Scientific).
This method follows the same steps as Method 1 above, but utilises a higher concentration of the p38 MAPKα protein (2.5 μL of 200 ng/mL protein instead of 2.5 μL of 80 ng/mL protein) for mixing with the test compound (tested at either 1 μg/mL, 0.1 μg/mL, 0.01 μg/mL or 0.001 μg/mL).
as §2

Data set [4] deals with Jurkat cells. Briefly: (r) Cell cytotoxicity assay. Conditions: 24 hours. Format: cell-based, human. The method in brief:
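Viability read by flow cytometry as the fraction of propidium iodide-negative cells (7.5 μg/mL PI, 15 min), relative to 1.0% DMSO control. Beforehand, 1×10^5 Jurkat cells in RPMI/10% FBS were treated 24 h at 37° C., 5% CO2 with test compound at final 20, 5 or 1 μg/mL.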

Chain of p38 MAPKα (MAPK14) (Q16539 whole entry): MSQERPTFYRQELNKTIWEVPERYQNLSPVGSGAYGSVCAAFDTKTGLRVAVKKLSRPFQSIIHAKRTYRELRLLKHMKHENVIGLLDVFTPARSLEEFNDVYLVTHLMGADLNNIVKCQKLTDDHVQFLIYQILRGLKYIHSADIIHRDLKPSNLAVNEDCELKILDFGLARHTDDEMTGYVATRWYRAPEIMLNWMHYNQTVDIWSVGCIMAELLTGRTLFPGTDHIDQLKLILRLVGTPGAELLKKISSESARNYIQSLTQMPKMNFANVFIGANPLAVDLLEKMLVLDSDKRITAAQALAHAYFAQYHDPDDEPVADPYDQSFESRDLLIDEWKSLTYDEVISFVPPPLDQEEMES

For orientation: IC50 means the concentration that inhibits the measured activity by half. The low end stands for greater potency in that assay, the high end for weaker potency in that assay. In the case of `COc1cc(Nc2cc(Oc3ccc(NC(=O)Nc4cc(C(C)(C)C)cc(NS(C)(=O)=O)c4OC)c4ccccc34)ccn2)ccc1S(=O)(=O)N(C)CCN1CCOCC1` [17(o), 1-[5-tert-butyl-3-(methanesulfonamido)-2-methoxy-phenyl]-3-[4-[[2-[3-methoxy-4-[methyl(2-morpholinoethyl)sulfamoyl]anilino]-4-pyridyl]oxy]-1-naphthyl]urea], the IC50 came to 232 nM in data set [1] and 948 nM in data set [2].

For the compound `COCCOCCOCCOc1ccc(Nc2cc(Oc3ccc(NC(=O)Nc4cc(C(C)(C)C)cc(NS(C)(=O)=O)c4OC)c4ccccc34)ccn2)cc1C#N` [Example 8, N-(5-(tert-Butyl)-3-(3-(4-((2-((3-cyano-4-(2-(2-(2-methoxyethoxy)ethoxy)ethoxy)phenyl)amino)pyridin-4-yl)oxy)naphthalen-1-yl)ureido)-2-methoxyphenyl)methanesulfonamide], 214 nM corresponded to half-maximal inhibition in data set [3] (IC50).

The compound `COc1cc(Nc2cc(Oc3ccc(NC(=O)Nc4cc(C(C)(C)C)cc(NS(C)(=O)=O)c4OC)c4ccccc34)ccn2)ccc1C(=O)N(C)CCCN1CCOCC1` [17(af), 4-[[4-[[4-[[5-tert-butyl-3-(methanesulfonamido)-2-methoxy-phenyl]carbamoylamino]-1-naphthyl]oxy]-2-pyridyl]amino]-2-methoxy-N-methyl-N-(3-morpholinopropyl)benzamide] returned an IC50 in data set [3] of 5 nM. In addition, in data set [4], the “% Viability at 1 μg/mL” value was determined as 96.7%, the “% Viability at 5 μg/mL” value worked out at 76.2% and the “% Viability at 20 μg/mL” value was 54.1%.

In data set [1], `COc1cc(Nc2cc(Oc3ccc(NC(=O)Nc4cc(C(C)(C)C)cc(NC(=O)COP(=O)(O)O)c4OC)c4ccccc34)ccn2)ccc1C(=O)NCCN1CC[S+]([O-])CC1` [17(cp), 2-((5-(tert-Butyl)-2-methoxy-3-(3-(4-((2-((3-methoxy-4-((2-(1-oxidothiomorpholino)-ethyl)carbamoyl)phenyl)amino)pyridin-4-yl)oxy)naphthalen-1-yl)ureido)phenyl)amino)-2-oxoethyl dihydrogen phosphate] had an IC50 of 20 nM. In data set [2], this compound came in with an IC50 of 393 nM. In data set [4], the “% Viability at 1 μg/mL” value worked out at 97.6%, the “% Viability at 5 μg/mL” value is recorded as 96.9% and the “% Viability at 20 μg/mL” value is given as 94.7%.

Turning to `COc1cc(Nc2cc(Oc3ccc(NC(=O)Nc4cc(C(C)(C)C)cc(NS(C)(=O)=O)c4OC)c4ccccc34)ccn2)ccc1S(=O)(=O)N(C)CCCN1CCOCC1` [Example 13, 1-[5-tert-Butyl-3-(methanesulfonamido)-2-methoxy-phenyl]-3-[4-[[2-[3-methoxy-4-[methyl(3-morpholinopropyl)sulfamoyl]anilino]-4-pyridyl]oxy]-1-naphthyl]urea], the IC50 in data set [1] is 150 nM; in data set [2], 809 nM.

The compound `COc1c(NC(=O)Nc2ccc(Oc3ccnc(Nc4ccc(C(=O)NCCN5CCOCC5)c(N(C)C)c4)c3)c3ccccc23)cc(C(C)(C)C)cc1NS(C)(=O)=O` [Example 21] came in with an IC50 in data set [1] of 16 nM. It took 15 nM to reach half-maximal inhibition in data set [2] (IC50). In data set [4], the “% Viability at 1 μg/mL” value stood at 101.2%, the “% Viability at 5 μg/mL” value was 82.4% and the “% Viability at 20 μg/mL” value worked out at 77.1%.

The compound `COc1cc(Nc2cc(Oc3ccc(NC(=O)Nc4cc(C(C)(C)C)cc(NS(C)(=O)=O)c4OC)c4ccccc34)ccn2)ccc1S(=O)(=O)CCCN1CCOCC1` [Example 20, N-(5-(tert-Butyl)-2-methoxy-3-(3-(4-((2-((3-methoxy-4-((3-morpholinopropyl)sulfonyl)phenyl)-amino)pyridin-4-yl)oxy)naphthalen-1-yl)ureido)phenyl)methanesulfonamide] yielded a 50% inhibitory concentration (IC50) in data set [1] of 77 nM. The compound further displayed an IC50 in data set [2] of 144 nM. For the same compound, in data set [4], the “% Viability at 1 μg/mL” value is listed as 104.0%, the “% Viability at 5 μg/mL” value is 99.3% and the “% Viability at 20 μg/mL” value came to 91.8%.
